The values that follow come from patent US10653700B2, “Composition comprising a therapeutic agent and a respiratory stimulant and methods for the use thereof” (priority 2015, dated 2020).

Counter-ions that a name gives are not always drawn. Like-named read-outs stand apart in the source and are kept apart here.

The conditions of data set [1]: cited from earlier work.
For data set [2] the following is noted: chronic administration, multi-year trials; cited from earlier work.
For data set [3] the following is noted: mice; cited from earlier work.
Data set [4] is described as follows: minute volume after intravenous doxapram enantiomers in rats. The format is in vivo. To be noted: for behavioral side effects (agitation, seizures): rats.
A short description of data set [5]: minute volume after intravenous doxapram enantiomers in cynomolgus monkeys. Format: in vivo. To be noted: for behavioral side effects (agitation, seizures): monkeys.
For data set [6] the following is noted: cited from earlier work. The source holds these as a separate data set.
The conditions of data set [7]: in blood; cited from earlier work.
For data set [8] the following is noted: rhesus monkeys; cited from earlier work.
The conditions of data set [9]: cited from earlier work. This is another data set of the same source.
For data set [10] the following is noted: lambs; cited from earlier work.
For data set [11] the following is noted: humans, severe life-threatening side effects; cited from earlier work.
For data set [12] the following is noted: carotid body denervated rats; cited from earlier work.
The conditions of data set [13]: obstructive sleep apnea, four subjects; cited from earlier work.
For data set [14] the following is noted: intravenous; cited from earlier work.
The conditions of data set [15]: rat, IV, single dose; cited from earlier work.
For data set [16] the following is noted: cited from earlier work. The source holds these as a separate data set.
The conditions of data set [17]: cited from earlier work. The source holds these as a separate data set.
The conditions of data set [18]: carotid sinus nerve transection; cited from earlier work.
In data set [19] the test system is AMPA receptor. To be noted: human, in vivo; cited from earlier work.
Data set [20] concerns AMPA receptor. To be noted: in vivo; cited from earlier work.
Data set [21] is described as follows: blood pressure in conscious rats. The format is in vivo. The following applies: doses that were moderately respiratory stimulant.
Where [22] appears, read: healthy volunteers, room air VE unchanged.

Regarding `C=CCNc1nc(NCC=C)nc(N2CCN(C(c3ccc(F)cc3)c3ccc(F)cc3)CC2)n1` [almitrine, N,N′-Diallyl-6-[4-(4,4′difluorobenzhydryl)piperazin-1-yl]-1,3,5-triazine-2,4-diyldiamine], in data set [1] (setting [22]), the plasma level at which slope of hypercapnic ventilatory response increased is > 200 ng/mL and the plasma level at which slope of hypoxic ventilatory response increased is > 50 ng/mL. Besides, the “increase in VE above baseline” value in data set [1] (room air, plasma concentrations exceeding approximately 250 μg/ml) is “about 11%”. In addition, the weight loss in data set [2] was > 15%. The LD50 (in general, the dose at which mortality reaches 50%) in data set [3] is reported as > 200 mg/kg.
Consider `CCN1CC(CCN2CCOCC2)C(c2ccccc2)(c2ccccc2)C1=O` (centres unmarked) [GAL-053], for which the “behavioral side effects (agitation, seizures)” value in data set [4] was “agitation and seizures were restricted to GAL-053”; in data set [5], “agitation and seizures were restricted to GAL-053”.
On to `COc1ccc2c3c1O[C@H]1C(=O)CC[C@H]4[C@@H](C2)N(C)CC[C@]314.O=C(O)C(O)C(O)C(=O)O` [hydrocodone bitartrate], for which, in data set [6] (after 15 mg hydrocodone to a human subject, depending on formulation), the “maximum plasma concentration (Cmax)” value is listed as 1 to 40.
In the case of `COc1ccc2c3c1O[C@H]1C(=O)CC[C@H]4[C@@H](C2)N(C)CC[C@]314` [hydrocodone], the bound to protein in data set [7] was 20-50%. In addition, the “analgesic potency versus morphine” value in [8] was “higher than morphine”. Further, the “blood and plasma concentration” value in data set [6] (acute, fatal overdose) is 100-1,600 μg/L; in data set [6] (people taking the drug therapeutically) it was 5 to 30 µg/L; in [6] (recreational users) it was 100 to 200 µg/L. Besides, the serum half-life in data set [9] (average) is 3.8 h. For the same molecule, the “metabolism attributed to non-cytochrome-catalyzed reactions” value in data set [9] (in vivo) is recorded as “Approximately 40%”.
Turning to `CCN1CC(CCN2CCOCC2=O)C(c2ccccc2)(c2ccccc2)C1=O` (centres unmarked) [AHR 5955, ketodoxapram], the activity of metabolite result in data set [10] is listed as “metabolically active in lambs in a dose dependent fashion”.
As to `CCN1CC(CCN2CCOCC2)C(c2ccccc2)(c2ccccc2)C1=O` (racemic) [doxapram, 1-ethyl-4-[2-(4-morpholinyl)ethyl]-3,3-diphenyl-2-pyrrolidinone monohydrochloride, monohydrate], the LD50 in data set [3] is recorded as 85 mg/kg. The therapeutic window in data set [11] is given as 20-40 fold. Also, the blood pressure entry in [12] is “increased blood pressure”. Moreover, the oxyhemoglobin desaturation events result in data set [13] was “decreased the duration and severity”. For the same molecule, in [14], the duration of effect is 5 to 12 min; the half-life (as a rule, the time in which the quantity being followed falls by half) is 3.4 h; the onset was 20 to 40 s; the peak plasma time was 1 to 2 min. Moreover, the LD50 in [15] is reported as 72 mg/kg. In [16] (1.5 mg/kg bolus), the T1/2 is 3.4 h and the peak in serum entry is given as “around 3 μg/ml”. Moreover, the peak plasma concentration in data set [16] (300 mg oral administration) is 0.96 µg/mL. In addition, the peak plasma concentration in [16] (IV infusion 3.5 mg/kg/hr for 2 hours) is 4.0 µg/mL. Besides, the T1/2 in [16] (after stop of IV infusion 3.5 mg/kg/hr for 2 hours) is 3.9 h. Also, in data set [16] (in vivo), the “effect on minute ventilation, time span” value was 0 to 10 min and the “return of minute ventilation to baseline” value was ≤ 15 min.
Consider `CCCNc1nc(NCCC)nc(N(C)OC)n1` [GAL-021], for which, in data set [17] (1-h continuous infusions), the “VE (AUE 0-1 h)” value is recorded as “statistically significant increases”; the “time to half-maximal effect on VE and ETCO2” value is listed as < 10 min. In addition, in data set [17] (after infusion), the “distribution t1/2” value was 0.5 h and the “terminal t1/2” value was 5 to 7 h. For the same molecule, in [18], the “reduction of GAL-021-induced respiratory stimulation” value is “about 85%”.
As to `O=C(c1ccc2nonc2c1)N1CCOCC1` [CX717], in the data set on AMPA receptor [19], the “respiratory rate vs. placebo” value is recorded as “prevented the fall in respiratory rate”. The “effect on respiratory depression” value in the data set with AMPA receptor [20] is on record as “able to reverse the respiratory depressive effects”.
`CCN1CC(CCN2CCOCC2)C(c2ccccc2)(c2ccccc2)C1=O` (centres unmarked) [GAL-054]: the minute volume result in data set [4] (intravenous, drug naïve and opioid challenged rats) is “dose-dependently increased minute volume”; in [5] (intravenous, drug naïve and opioid challenged cynomolgus monkeys) it was “dose-dependently increased minute volume”. Also, the “behavioral side effects (agitation, seizures)” value in data set [4] and in data set [5] was “minimal behavioral changes” throughout. For the same molecule, the “increase in blood pressure above baseline values” in data set [21] was 15-20%.
